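Protocol summary: plate cells (96-well), add compound at 5 concentrations, incubate 48 h, interpolate endpoints linearly. Here, GI50 denotes the concentration required for 50% inhibition of growth. The concentration for full growth arrest is given as TGI.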
Key:
Assay in all cases: NCI tumour cell line growth inhibition, 48 h
786-0 renal = tested on: 786-0 renal
A549 NSCLC = tested on: A549 NSCLC
ACHN renal = tested on: ACHN renal
BT-549 breast = tested on: BT-549 breast
CAKI-1 renal = tested on: CAKI-1 renal
CCRF-CEM leukemia = tested on: CCRF-CEM leukemia
COLO 205 colon = tested on: COLO 205 colon
DU-145 prostate = tested on: DU-145 prostate
EKVX NSCLC = tested on: EKVX NSCLC
HCC-2998 colon = tested on: HCC-2998 colon
HCT-116 colon = tested on: HCT-116 colon
HCT-15 colon = tested on: HCT-15 colon
HL-60(TB) leukemia = tested on: HL-60(TB) leukemia
HOP-62 NSCLC = tested on: HOP-62 NSCLC
HOP-92 NSCLC = tested on: HOP-92 NSCLC
HS 578T breast = tested on: HS 578T breast
HT29 colon = tested on: HT29 colon
IGROV1 ovarian = tested on: IGROV1 ovarian
K-562 leukemia = tested on: K-562 leukemia
KM12 colon = tested on: KM12 colon
LOX IMVI melanoma = tested on: LOX IMVI melanoma
M14 melanoma = tested on: M14 melanoma
MALME-3M melanoma = tested on: MALME-3M melanoma
MCF7 breast = tested on: MCF7 breast
MDA-MB-231 breast = tested on: MDA-MB-231 breast
MDA-MB-435 = tested on: MDA-MB-435
MOLT-4 leukemia = tested on: MOLT-4 leukemia
NCI-H226 lung = tested on: NCI-H226 lung
NCI-H23 lung = tested on: NCI-H23 lung
NCI-H460 lung = tested on: NCI-H460 lung
NCI-H522 lung = tested on: NCI-H522 lung
NCI/ADR-RES ovarian = tested on: NCI/ADR-RES ovarian
OVCAR-3 ovarian = tested on: OVCAR-3 ovarian
OVCAR-4 ovarian = tested on: OVCAR-4 ovarian
OVCAR-5 ovarian = tested on: OVCAR-5 ovarian
OVCAR-8 ovarian = tested on: OVCAR-8 ovarian
PC-3 prostate = tested on: PC-3 prostate
RPMI-8226 leukemia = tested on: RPMI-8226 leukemia
RXF 393 renal = tested on: RXF 393 renal
SF-268 CNS = tested on: SF-268 CNS
SF-295 CNS = tested on: SF-295 CNS
SF-539 CNS = tested on: SF-539 CNS
SK-MEL-2 melanoma = tested on: SK-MEL-2 melanoma
SK-MEL-28 melanoma = tested on: SK-MEL-28 melanoma
SK-MEL-5 melanoma = tested on: SK-MEL-5 melanoma
SK-OV-3 ovarian = tested on: SK-OV-3 ovarian
SN12C renal = tested on: SN12C renal
SNB-19 CNS = tested on: SNB-19 CNS
SNB-75 CNS = tested on: SNB-75 CNS
SR leukemia = tested on: SR leukemia
SW-620 colon = tested on: SW-620 colon
T-47D breast = tested on: T-47D breast
TK-10 renal = tested on: TK-10 renal
U251 CNS = tested on: U251 CNS
UACC-257 melanoma = tested on: UACC-257 melanoma
UACC-62 melanoma = tested on: UACC-62 melanoma
UO-31 renal = tested on: UO-31 renal
A498 renal = tested on: A498 renal

## O=C(OCC1OC(n2cc(C(F)(F)F)c(=O)[nH]c2=O)CC1OC(=O)c1ccc([N+](=O)[O-])cc1)c1ccc([N+](=O)[O-])cc1 (stereo unspecified)
786-0 renal
  GI50: 3.11 µM
  TGI: 18.6 µM
A549 NSCLC
  GI50: 4.95 µM
  TGI: > 100 µM
ACHN renal
  GI50: 1.17 µM
  TGI: > 100 µM
BT-549 breast
  GI50: 7.42 µM
  TGI: > 100 µM
CAKI-1 renal
  GI50: 3.29 µM
  TGI: > 100 µM
CCRF-CEM leukemia
  GI50: 3.86 µM
  TGI: > 100 µM
COLO 205 colon
  GI50: > 100 µM
  TGI: > 100 µM
DU-145 prostate
  GI50: 0.885 µM
  TGI: > 100 µM
EKVX NSCLC
  GI50: > 100 µM
  TGI: > 100 µM
HCC-2998 colon
  GI50: 5.38 µM
  TGI: > 100 µM
HCT-116 colon
  GI50: 8.5 µM
  TGI: > 100 µM
HCT-15 colon
  GI50: 20.8 µM
  TGI: > 100 µM
HL-60(TB) leukemia
  GI50: 7.37 µM
  TGI: > 100 µM
HOP-62 NSCLC
  GI50: 8.97 µM
  TGI: > 100 µM
HOP-92 NSCLC
  GI50: 8.55 µM
  TGI: > 100 µM
HS 578T breast
  GI50: > 100 µM
  TGI: > 100 µM
HT29 colon
  GI50: > 100 µM
  TGI: > 100 µM
IGROV1 ovarian
  GI50: 25.4 µM
  TGI: > 100 µM
K-562 leukemia
  GI50: 94 µM
  TGI: > 100 µM
KM12 colon
  GI50: > 100 µM
  TGI: > 100 µM
LOX IMVI melanoma
  GI50: 4.81 µM
  TGI: > 100 µM
M14 melanoma
  GI50: 1.96 µM
  TGI: 7.82 µM
MALME-3M melanoma
  GI50: 92.3 µM
  TGI: > 100 µM
MCF7 breast
  GI50: 1.26 µM
  TGI: > 100 µM
MDA-MB-231 breast
  GI50: > 100 µM
  TGI: > 100 µM
MDA-MB-435
  GI50: 2.36 µM
  TGI: > 100 µM
MOLT-4 leukemia
  GI50: 14.8 µM
  TGI: > 100 µM
NCI-H226 lung
  GI50: 9.42 µM
  TGI: > 100 µM
NCI-H23 lung
  GI50: > 100 µM
  TGI: > 100 µM
NCI-H460 lung
  GI50: 3.43 µM
  TGI: > 100 µM
NCI-H522 lung
  GI50: 5.65 µM
  TGI: > 100 µM
NCI/ADR-RES ovarian
  GI50: 16.7 µM
  TGI: > 100 µM
OVCAR-3 ovarian
  GI50: 23.8 µM
  TGI: > 100 µM
OVCAR-4 ovarian
  GI50: 54.7 µM
  TGI: > 100 µM
OVCAR-5 ovarian
  GI50: 41.8 µM
  TGI: > 100 µM
OVCAR-8 ovarian
  GI50: 6.91 µM
  TGI: > 100 µM
PC-3 prostate
  GI50: 8.74 µM
  TGI: > 100 µM
RPMI-8226 leukemia
  GI50: 2.12 µM
  TGI: > 100 µM
RXF 393 renal
  GI50: 4.54 µM
  TGI: > 100 µM
SF-268 CNS
  GI50: 3.87 µM
  TGI: > 100 µM
SF-295 CNS
  GI50: 3.72 µM
  TGI: > 100 µM
SF-539 CNS
  GI50: 2.03 µM
  TGI: > 100 µM
SK-MEL-2 melanoma
  GI50: > 100 µM
  TGI: > 100 µM
SK-MEL-28 melanoma
  GI50: > 100 µM
  TGI: > 100 µM
SK-MEL-5 melanoma
  GI50: 4.55 µM
  TGI: > 100 µM
SK-OV-3 ovarian
  GI50: 8.51 µM
  TGI: > 100 µM
SN12C renal
  GI50: 4.28 µM
  TGI: > 100 µM
SNB-19 CNS
  GI50: > 100 µM
  TGI: > 100 µM
SNB-75 CNS
  GI50: 8.92 µM
  TGI: > 100 µM
SR leukemia
  GI50: 11.3 µM
  TGI: > 100 µM
SW-620 colon
  GI50: 6.2 µM
  TGI: > 100 µM
T-47D breast
  GI50: 7.88 µM
  TGI: > 100 µM
TK-10 renal
  GI50: > 100 µM
  TGI: > 100 µM
U251 CNS
  GI50: 9.08 µM
  TGI: > 100 µM
UACC-257 melanoma
  GI50: 2.7 µM
  TGI: > 100 µM
UACC-62 melanoma
  GI50: 1.41 µM
  TGI: > 100 µM
UO-31 renal
  GI50: 3.77 µM
  TGI: > 100 µM

## NNC(=O)c1ccccc1Nc1nc(-c2cccs2)nc2ccc(Br)cc12
786-0 renal
  TGI: > 100 µM
A498 renal
  TGI: > 100 µM
A549 NSCLC
  TGI: > 100 µM
ACHN renal
  TGI: > 100 µM
BT-549 breast
  TGI: > 100 µM
CAKI-1 renal
  TGI: > 100 µM
CCRF-CEM leukemia
  TGI: > 100 µM
COLO 205 colon
  TGI: > 100 µM
DU-145 prostate
  TGI: > 100 µM
EKVX NSCLC
  TGI: > 100 µM
HCC-2998 colon
  TGI: > 100 µM
HCT-116 colon
  TGI: > 100 µM
HCT-15 colon
  TGI: > 100 µM
HL-60(TB) leukemia
  TGI: > 100 µM
HOP-62 NSCLC
  TGI: > 100 µM
HOP-92 NSCLC
  TGI: > 100 µM
HS 578T breast
  TGI: > 100 µM
HT29 colon
  TGI: > 100 µM
IGROV1 ovarian
  TGI: > 100 µM
K-562 leukemia
  TGI: > 100 µM
KM12 colon
  TGI: > 100 µM
LOX IMVI melanoma
  TGI: > 100 µM
M14 melanoma
  TGI: > 100 µM
MALME-3M melanoma
  TGI: > 100 µM
MCF7 breast
  TGI: > 100 µM
MDA-MB-231 breast
  TGI: > 100 µM
MDA-MB-435
  TGI: > 100 µM
MOLT-4 leukemia
  TGI: > 100 µM
NCI-H226 lung
  TGI: > 100 µM
NCI-H23 lung
  TGI: > 100 µM
NCI-H460 lung
  TGI: > 100 µM
NCI-H522 lung
  TGI: > 100 µM
NCI/ADR-RES ovarian
  TGI: > 100 µM
OVCAR-3 ovarian
  TGI: > 100 µM
OVCAR-4 ovarian
  TGI: > 100 µM
OVCAR-5 ovarian
  TGI: > 100 µM
OVCAR-8 ovarian
  TGI: > 100 µM
PC-3 prostate
  TGI: > 100 µM
RPMI-8226 leukemia
  TGI: > 100 µM
SF-268 CNS
  TGI: > 100 µM
SF-295 CNS
  TGI: > 100 µM
SF-539 CNS
  TGI: > 100 µM
SK-MEL-2 melanoma
  TGI: > 100 µM
SK-MEL-28 melanoma
  TGI: > 100 µM
SK-MEL-5 melanoma
  TGI: > 100 µM
SK-OV-3 ovarian
  TGI: > 100 µM
SN12C renal
  TGI: > 100 µM
SNB-19 CNS
  TGI: > 100 µM
SNB-75 CNS
  TGI: > 100 µM
SR leukemia
  TGI: > 100 µM
SW-620 colon
  TGI: > 100 µM
T-47D breast
  TGI: > 100 µM
TK-10 renal
  TGI: > 100 µM
U251 CNS
  TGI: > 100 µM
UACC-257 melanoma
  TGI: > 100 µM
UACC-62 melanoma
  TGI: > 100 µM
UO-31 renal
  TGI: > 100 µM
